What all share (assay type): in vivo
Experiment [1] concerns xylene-induced mouse auricle swelling. The experiment is described as follows: Xylene-induced mouse auricle swelling. Conditions: 0.5 mg/mouse/d intragastric, 7 d. From the text:
Female SPF-grade Kunming mice weighing 18 g±1 g were purchased from Beijing HFK Bio-technology Co., Ltd., with a license number SCXK (Beijing) 2019-0008. The mice were acclimated to the environment for 3 d before the experiment, and then fed with the experimental drugs every day at 9 a.m. The mice were randomly divided into a blank control group, a dexamethasone (DXM) group, and high-, medium-, and low-dose groups of the water extract of vetiver (the water extract of vetiver prepared in Example 2) or high-, medium-, and low-dose groups of the Radix Astragali water extract (the Radix Astragali water extract prepared in Comparative Example 1), with 8 mice in each group. The mice in each group were intragastrically administered 1 time a day for 7 consecutive days. At 1 h after the final administration, 30 μL of xylene was added to the right ear of each mouse in each group, and while the left ear was kept as a control. After 30 min of the treatment, the mice were killed by neck breaking, and round ear pieces were collected by punching at a same sites of the left and right ears with a 6 mm diameter, and the ear swelling degrees and swelling inhibition rates were calculated. The results were shown in Table 6, swelling inhibition rate (%)=(average swelling degree of blank group−average swelling degree of administration group)/average swelling degree of blank group×100%.

For experiment [2], the system named is carrageenan-induced mouse pedal swelling. The experiment is described as follows: Carrageenan-induced mouse pedal swelling. The note with it: 0.5 mg/mouse/d, 7 d. From the text:
(§1) Female SPF-grade Kunming mice weighing 18 g±1 g were purchased from the Beijing HFK Bio-technology Co., Ltd., with a license number SCXK (Beijing) 2019-0008. The mice were acclimated to the environment for 3 d before the experiment, and then fed with the experimental drugs. The mice were randomly divided into a blank control group, a DXM group, and high-, medium-, and low-dose groups of the water extract of vetiver (the water extract of vetiver prepared in Example 2) or high-, medium-, and low-dose groups of the Radix Astragali water extract (the Radix Astragali water extract prepared in Comparative Example 1), with 8 mice in each group. The mice in each group were administered continuously for 7 d. At 1 h after the final administration, 1% carrageenan was subcutaneously injected into the sole of the right hind limb to induce inflammation (at 0.1 mL/mouse). At 0 h, 1 h, 2 h, 3 h, and 4 h of Inflammatory treatment, the thickness of the paws of the mice was measured with a micrometer, and the swelling degree and swelling inhibition rate of the paws were calculated.

Experiment [3] can be described thus: NO content in serum of mice (carrageenan model). Conditions: 0.5 mg/mouse/d, 7 d; mice of Use Example 6.
Description: as §1
The mice in each experimental group in Use Example 6 were used as research objects. Blood was collected from eyeballs, serum was separated, stored at −20° C., and level of NO in serum was determined. […]

Turning to `C[C@@H]1C[C@H]2[C@@H]3CCC4=CC(=O)C=C[C@]4(C)[C@@]3(F)[C@@H](O)C[C@]2(C)[C@@]1(O)C(=O)CO` [DXM, dexamethasone], the Swelling degree in experiment [1] (30 min after xylene) is 2.033 ± 0.907 mg. In experiment [1] (vs blank group), this molecule had a Swelling inhibition rate of 60.646%. Besides, the “inhibition rate of pedal swelling” value in experiment [2] (0 h) came to 14.323%; in experiment [2] (1 h) it was 29.302%; in experiment [2] (2 h), 34.994%; in experiment [2] (3 h) it was 25.884%; in experiment [2] (4 h), 13.173%. The pedal swelling degree in experiment [2] (0 h after carrageenan) is 0.995 ± 0.076; in experiment [2] (1 h after carrageenan), 1.090 ± 0.134; in experiment [2] (2 h after carrageenan), 1.083 ± 0.360; in experiment [2] (3 h after carrageenan), 1.328 ± 0.040; in experiment [2] (4 h after carrageenan) it was 1.438 ± 0.172. The “NO content in serum” value in experiment [3] came to 7.737 ± 0.431 µmol/mL.

The values above are taken from patent US20240261362A1, “Use Of Vetiver Product In Preparation Of Drug Having Anti-Inflammatory Effect And Capable Of Improving Animal Immunity” (Henan Agricultural University, priority 2023, published 2024).
